Experimental data published in ChEMBL document CHEMBL4477261, “Design, synthesis and evaluation of the multidrug resistance-reversing activity of pyridine acid esters of podophyllotoxin in human leukemia cells” (Bioorg Med Chem Lett, 2016).
Activity calls are given as the source filed them. The rule behind the calls is not given here.

How the values were obtained:
K562 [1] = test: Antiproliferative activity against human K562 cells after 72 hrs by CCK8 assay; assay type: functional, cell-based; conditions: K562, 72 h
K562 [2] = test: Resistance factor, ratio of IC50 for human K562/ADR cells to IC50 for human K562 cells; assay type: functional
K562/Adr [3] = test: Potency index, ratio of podophyllotoxin IC50 to compound IC50 for human K562/ADR cells; assay type: functional
K562/Adr [4] = test: Potency index, ratio of etoposide IC50 to compound IC50 for human K562/ADR cells; assay type: functional
K562/Adr [5] = test: Potency index, ratio of adriamycin IC50 to compound IC50 for human K562/ADR cells; assay type: functional
K562 [6] = test: Potency index, ratio of etoposide IC50 to compound IC50 for human K562 cells; assay type: functional
K562 [7] = test: Potency index, ratio of adriamycin IC50 to compound IC50 for human K562 cells; assay type: functional
K562/Adr [8] = test: Cell cycle arrest in human K562/ADR cells assessed as accumulation in S phase at 0.05 uM after 48 hrs by propidium iodide staining based flow cytometry (reference value: 43.39 +/- 0.69%); assay type: functional
K562/Adr [9] = test: Cell cycle arrest in human K562/ADR cells assessed as accumulation in S phase at 0.1 uM after 48 hrs by propidium iodide staining based flow cytometry (reference value: 43.39 +/- 0.69%); assay type: functional
K562/Adr [10] = test: Induction of apoptosis in human K562/ADR cells assessed as live cells at 0.05 uM after 48 hrs by Annexin V-APC/7-AAD staining based flow cytometry (reference value: 91.65%); assay type: functional
K562/Adr [11] = test: Induction of apoptosis in human K562/ADR cells assessed as late apoptotic cells at 0.05 uM after 48 hrs by Annexin V-APC/7-AAD staining based flow cytometry (reference value: 3.89%); assay type: functional
K562/Adr [12] = test: Induction of apoptosis in human K562/ADR cells assessed as necrotic cells at 0.05 uM after 48 hrs by Annexin V-APC/7-AAD staining based flow cytometry (reference value: 2.47%); assay type: functional
K562/Adr [13] = test: Induction of apoptosis in human K562/ADR cells assessed as live cells at 0.1 uM after 48 hrs by Annexin V-APC/7-AAD staining based flow cytometry (reference value: 91.65%); assay type: functional
K562/Adr [14] = test: Induction of apoptosis in human K562/ADR cells assessed as early apoptotic cells at 0.1 uM after 48 hrs by Annexin V-APC/7-AAD staining based flow cytometry (reference value: 1.99%); assay type: functional
K562/Adr [15] = test: Induction of apoptosis in human K562/ADR cells assessed as late apoptotic cells at 0.1 uM after 48 hrs by Annexin V-APC/7-AAD staining based flow cytometry (reference value: 3.89%); assay type: functional
K562/Adr [16] = test: Induction of apoptosis in human K562/ADR cells assessed as necrotic cells at 0.1 uM after 48 hrs by Annexin V-APC/7-AAD staining based flow cytometry (reference value: 2.47%); assay type: functional
K562/Adr [17] = test: Induction of apoptosis in human K562/ADR cells assessed as nuclear fragmentation at 0.05 to 0.1 uM after 48 hrs by Hoechst 33342 staining based fluorescent microscopic analysis; assay type: functional, cell-based
[18] = target: T1, Mitogen-activated protein kinase; ERK1/ERK2 (Homo sapiens) (UniProt P27361+P28482); test: Induction of ERK1/2 phosphorylation in human K562/ADR cells at 0.05 uM after 48 hrs by Western blot analysis relative to control; assay type: cell-based
T1 sequence (P27361 whole entry, looked up): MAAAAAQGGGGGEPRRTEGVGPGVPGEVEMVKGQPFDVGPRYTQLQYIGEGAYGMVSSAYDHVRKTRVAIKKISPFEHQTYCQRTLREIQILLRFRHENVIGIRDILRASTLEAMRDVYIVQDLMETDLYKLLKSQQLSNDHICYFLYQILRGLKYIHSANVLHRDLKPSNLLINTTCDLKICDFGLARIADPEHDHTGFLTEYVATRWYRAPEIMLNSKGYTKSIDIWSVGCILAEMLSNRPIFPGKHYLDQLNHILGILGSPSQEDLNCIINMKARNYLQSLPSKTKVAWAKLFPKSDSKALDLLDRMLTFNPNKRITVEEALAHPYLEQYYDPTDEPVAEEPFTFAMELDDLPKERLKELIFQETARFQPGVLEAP
T1 sequence (P28482 whole entry, looked up): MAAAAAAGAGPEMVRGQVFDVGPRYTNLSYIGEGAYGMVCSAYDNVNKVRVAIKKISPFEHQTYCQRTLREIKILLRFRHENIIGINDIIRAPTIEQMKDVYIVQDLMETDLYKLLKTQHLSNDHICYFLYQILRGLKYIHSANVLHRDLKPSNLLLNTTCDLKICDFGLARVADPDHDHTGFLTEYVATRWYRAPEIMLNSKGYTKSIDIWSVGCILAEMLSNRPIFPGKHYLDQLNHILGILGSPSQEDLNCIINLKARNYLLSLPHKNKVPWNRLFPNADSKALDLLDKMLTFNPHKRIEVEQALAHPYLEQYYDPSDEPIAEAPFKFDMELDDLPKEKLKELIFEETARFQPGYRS

[19] = target: T1, Mitogen-activated protein kinase; ERK1/ERK2 (Homo sapiens); test: Induction of ERK1/2 phosphorylation in human K562/ADR cells at 0.1 uM after 48 hrs by Western blot analysis relative to control; assay type: cell-based
[20] = target: T1, Mitogen-activated protein kinase; ERK1/ERK2 (Homo sapiens); test: Induction of ERK1/2 phosphorylation in human K562/ADR cells at 0.1 uM after 48 hrs in presence of ERK1/2 inhibitor U0126 by Western blot analysis relative to control; assay type: cell-based
K562/Adr [21] = test: Effect on total ERK1/2 protein expression level in human K562/ADR cells at 0.05 uM after 48 hrs by Western blot analysis relative to control; assay type: ADME, cell-based
K562/Adr [22] = test: Effect on total ERK1/2 protein expression level in human K562/ADR cells at 0.1 uM after 48 hrs by Western blot analysis relative to control; assay type: ADME, cell-based
[23] = target: T1, Mitogen-activated protein kinase; ERK1/ERK2 (Homo sapiens); test: Activation of ERK1/2 signalling in human K562/ADR cells assessed as suppression of CDK1 protein expression at 0.05 uM after 48 hrs by Western blot analysis relative to control; assay type: cell-based
[24] = target: T1, Mitogen-activated protein kinase; ERK1/ERK2 (Homo sapiens); test: Activation of ERK1/2 signalling in human K562/ADR cells assessed as suppression of CDK1 protein expression at 0.1 uM after 48 hrs by Western blot analysis relative to control; assay type: cell-based
[25] = target: T1, Mitogen-activated protein kinase; ERK1/ERK2 (Homo sapiens); test: Activation of ERK1/2 signalling in human K562/ADR cells assessed as suppression of CyclinB1 protein expression at 0.1 uM after 48 hrs in presence of ERK1/2 inhibitor U0126 by Western blot analysis relative to control; assay type: cell-based
[26] = target: T1, Mitogen-activated protein kinase; ERK1/ERK2 (Homo sapiens); test: Activation of ERK1/2 signalling in human K562/ADR cells assessed as increase in cleaved caspase-3 expression at 0.05 uM after 48 hrs by Western blot analysis relative to control; assay type: cell-based
[27] = target: T1, Mitogen-activated protein kinase; ERK1/ERK2 (Homo sapiens); test: Activation of ERK1/2 signalling in human K562/ADR cells assessed as increase in cleaved caspase-3 expression at 0.1 uM after 48 hrs by Western blot analysis relative to control; assay type: cell-based
[28] = target: T1, Mitogen-activated protein kinase; ERK1/ERK2 (Homo sapiens); test: Activation of ERK1/2 signalling in human K562/ADR cells assessed as increase in cleaved caspase-3 expression at 0.1 uM after 48 hrs in presence of ERK1/2 inhibitor U0126 by Western blot analysis relative to control; assay type: cell-based
[29] = target: T1, Mitogen-activated protein kinase; ERK1/ERK2 (Homo sapiens); test: Activation of ERK1/2 signalling in human K562/ADR cells assessed as increase in cleaved caspase-8 expression at 0.1 uM after 48 hrs by Western blot analysis relative to control; assay type: cell-based
[30] = target: T1, Mitogen-activated protein kinase; ERK1/ERK2 (Homo sapiens); test: Activation of ERK1/2 signalling in human K562/ADR cells assessed as increase in cleaved caspase-8 expression at 0.1 uM after 48 hrs in presence of ERK1/2 inhibitor U0126 by Western blot analysis relative to control; assay type: cell-based
[31] = target: T1, Mitogen-activated protein kinase; ERK1/ERK2 (Homo sapiens); test: Activation of ERK1/2 signalling in human K562/ADR cells assessed as increase in cleaved caspase-9 expression at 0.05 uM after 48 hrs by Western blot analysis relative to control; assay type: cell-based
[32] = target: T1, Mitogen-activated protein kinase; ERK1/ERK2 (Homo sapiens); test: Activation of ERK1/2 signalling in human K562/ADR cells assessed as increase in cleaved caspase-9 expression at 0.1 uM after 48 hrs by Western blot analysis relative to control; assay type: cell-based
[33] = target: T1, Mitogen-activated protein kinase; ERK1/ERK2 (Homo sapiens); test: Activation of ERK1/2 signalling in human K562/ADR cells assessed as suppression of P-gp expression at 0.05 uM after 48 hrs by Western blot analysis relative to control; assay type: cell-based
[34] = target: T1, Mitogen-activated protein kinase; ERK1/ERK2 (Homo sapiens); test: Activation of ERK1/2 signalling in human K562/ADR cells assessed as suppression of P-gp expression at 0.1 uM after 48 hrs by Western blot analysis relative to control; assay type: cell-based
[35] = target: T1, Mitogen-activated protein kinase; ERK1/ERK2 (Homo sapiens); test: Activation of ERK1/2 signalling in human K562/ADR cells assessed as suppression of P-gp expression at 0.1 uM after 48 hrs in presence of ERK1/2 inhibitor U0126 by Western blot analysis relative to control; assay type: cell-based

What does the source list for `COc1cc([C@@H]2c3cc4c(cc3[C@H](OC(=O)c3cccc(Br)n3)[C@H]3COC(=O)[C@H]23)OCO4)cc(OC)c1OC`?
IC50 (K562 [1]): 25 nM; Ratio IC50 (K562 [2]): 1.84; Ratio IC50 (K562/Adr [3]): 0.54; Ratio IC50 (K562/Adr [4]): 44.02; Ratio IC50 (K562/Adr [5]): 408.23; Ratio IC50 (K562 [6]): 16.52; Ratio IC50 (K562 [7]): 8.8; Activity (K562/Adr [8]): 53.74%; Activity (K562/Adr [9]): 64.17%; Activity (K562/Adr [10]): 67.37%; Activity (K562/Adr [11]): 18.84%; Activity (K562/Adr [12]): 6.37%; Activity (K562/Adr [13]): 41.01%; Activity (K562/Adr [14]): 9.15%; Activity (K562/Adr [15]): 44.02%; Activity (K562/Adr [16]): 5.82%; Activity (K562/Adr [17]): Active; fold change (FC) [18]: 0.32; fold change (FC) [19]: 0.71; fold change (FC) [20]: 0.07; fold change (FC) (K562/Adr [21]): 0.94; fold change (FC) (K562/Adr [22]): 0.89; fold change (FC) [23]: 0.81; fold change (FC) [24]: 0.46; fold change (FC) [25]: 0.2; fold change (FC) [26]: 0.47; fold change (FC) [27]: 0.64; fold change (FC) [28]: 0.52; fold change (FC) [29]: 0.57; fold change (FC) [30]: 0.4; fold change (FC) [31]: 0.49; fold change (FC) [32]: 0.75; fold change (FC) [33]: 0.26; fold change (FC) [34]: 0.1; fold change (FC) [35]: 0.31
